Experimental data published in patent publication US20230295197A1, “STAT5 and STAT6 Degraders and Uses Thereof” (REGENTS OF THE UNIVERSITY OF MICHICAN, priority 2022, published 2023).
Like-named read-outs stand apart in the source and are kept apart here.

Target: T1, STAT6 (Homo sapiens, UniProt P42226)
T1 construct: endogenous in cells; host or cells: MOLM-16, KU-812, SKNO1, MB231, L1236
T1 sequence (P42226 1-847): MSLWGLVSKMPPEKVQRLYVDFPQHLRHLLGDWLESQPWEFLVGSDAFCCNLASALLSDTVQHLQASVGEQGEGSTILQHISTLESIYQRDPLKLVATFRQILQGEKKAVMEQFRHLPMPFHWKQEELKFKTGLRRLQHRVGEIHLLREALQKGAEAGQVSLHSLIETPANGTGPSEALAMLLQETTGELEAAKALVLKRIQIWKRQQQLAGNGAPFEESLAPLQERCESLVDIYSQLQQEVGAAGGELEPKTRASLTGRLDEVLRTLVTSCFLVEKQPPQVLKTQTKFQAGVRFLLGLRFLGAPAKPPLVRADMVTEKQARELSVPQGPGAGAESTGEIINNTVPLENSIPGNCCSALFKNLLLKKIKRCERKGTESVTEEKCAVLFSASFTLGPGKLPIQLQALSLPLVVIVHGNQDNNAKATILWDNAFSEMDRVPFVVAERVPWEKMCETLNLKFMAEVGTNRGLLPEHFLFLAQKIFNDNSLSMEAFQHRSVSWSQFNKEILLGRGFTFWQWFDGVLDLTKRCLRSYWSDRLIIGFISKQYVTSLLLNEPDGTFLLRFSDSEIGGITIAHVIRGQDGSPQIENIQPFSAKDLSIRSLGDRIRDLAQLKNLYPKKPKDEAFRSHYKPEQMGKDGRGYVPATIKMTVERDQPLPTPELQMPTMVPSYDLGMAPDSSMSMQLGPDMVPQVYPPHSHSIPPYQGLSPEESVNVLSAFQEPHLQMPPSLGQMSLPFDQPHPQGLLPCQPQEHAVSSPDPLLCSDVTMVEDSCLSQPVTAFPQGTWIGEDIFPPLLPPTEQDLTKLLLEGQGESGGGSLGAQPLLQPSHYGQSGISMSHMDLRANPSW
Test: Immunoblotting (Western blot) analysis of STAT6 degradation efficiency of degraders in treated cells
Assay type: cell-based
Experimental: Evaluation of the degradation efficiency of degraders may be accomplished by immunoblotting analysis. The representative general protocol is the following:
Cells are maintained in the appropriate culture medium with 10% FBS at 37° C. and an atmosphere of 5% CO2. Cell lines are used within three months of thawing fresh vials. Cells are lysed 1× Cell Lysis Buffer (Cell Signaling Technology, #9803), resolved by SDS-PAGE NuPAGE gel (Thermo Fisher Scientific), and transferred to a PVDF membrane (Millipore). Membranes are blocked using Odyssey TBS Blocker Buffer (LI-COR). IRDye 680RD and 800CW Dye-labeled secondary antibodies (LI-COR) are used. The washed membranes are scanned using Odyssey CLx imager (LI-COR). The intensity of Western blot signaling is quantitated using the Odyssey software. Primary antibodies used are: STAT5 Rabbit mAb (Cell Signaling Technology, #94205), STAT6 Rabbit mAb (Cell Signaling Technology, #5397) and GAPDH mouse monoclonal antibody (Santa Cruz Biotechnology, sc-47724).
To evaluate the degradation efficiency of degraders, immunoblotting analysis was performed. The general protocol is the following.
About 1 million cells for each data point were treated with compounds at indicated concentrations and durations. Untreated and treated cells in cell culture medium were transferred into tubes, followed by centrifugation at 3,000 rpm and 4° C. for 6 min Supernatants were removed from tubes and radioimmunoprecipitation assay (RIPA) lysis buffer supplemented with 1% protease inhibitor cocktail (Fisher Scientific cat. PI87786) and phosphatase inhibitor (Roche cat. 04906837001) were added to tubes containing the remaining cell pellets. The tubes were then left on ice for 30 min and placed in a −80° C. freezer. Subsequently they were thawed in 37° C. water, then centrifuged at 14,000 rpm for 15 min and the cell lysates transferred to new tubes. The concentration of total proteins in each tube was calculated using the Pierce BCA protein Assay kit (cat. 23225). Based on the calculated protein concentration, cell lysates containing approximately the same amount of proteins were transferred to new tubes, then distilled water and 4× Protein Sample Loading Buffer for Western Blots (LI-COR cat. 928-40004) supplemented with 20% of mercaptoethanol (Sigma Aldrich cat. M6250) were added on ice. The cell lysates were then reduced and denatured at 95° C. for 5 min. From the tubes containing cell lysates an equal amount of protein samples (20-40 μg) was loaded into precast 8%, 10%, 4%-12%, or 4%-20% Tris-glycine gels (Novex) filled with Tris-glycine SDS running buffer. After the proteins were resolved, they were transferred onto Immobile-FL PVDF Membrane (Millipore Sigma cat. IPFL00010), using Mini Trans-Blot Electrophoretic Transfer Cell (Bio-Rad 1703930). The membranes were blocked with Intercept Blocking Buffer (LI-COR cat. 927-70001) in LI-COR Western Blot boxes for 1 h at rt. The membranes were washed with 1× Tris-buffered saline-Tween-20 (TBST, 1× solution was made from 20×TBST solution, ThermoFisher Scientific cat. 28360) for 5 min 4 times. The membranes were incubated overnight at 4° C. in Intercept Blocking Buffer supplemented with primary antibodies (normally antibody:buffer 1:1000) and Tween-20. The membranes were washed with TBST for 5 min 4 times and were incubated with Intercept Blocking Buffer supplemented with IRDye 800CE Secondary Antibodies, IRDye 680RD Secondary Antibodies (LI-COR biosciences), Tween-20, and 10% SDS solution, for 1 h at rt. The membranes were then washed with TBST for 5 min 4 times and rinsed with deionized water before drying and scanning with Odyssey Dlx Amazing System (LI-COR). The immunoblots were finally quantified by the software.

[1] = MOLM-16 cells, class symbols, read-out: DC50 S6 MOLM-16
[2] = MOLM-16 cells, numeric bound, read-out: DC50 S6 MOLM-16
[3] = L1236 cells, read-out: DC50 S6 L1236

| Compound | DC50 [1] | DC50 [2] | DC50 [3] |
| --- | --- | --- | --- |
| CC(C)(C)[C@H](NC(=O)c1cc2cc(C(F)(F)P(=O)(O)O)ccc2s1)C(=O)N1CCN(C(=O)CC(=O)NCCCC#Cc2cccc3c2C(=O)N(C2CCC(=O)NC2=O)C3=O)C[C@H]1C(=O)N1CCO[C@H](c2ccccc2)C1 (stereo partly drawn) [Compound 511, ((2-(((2S)-1-((2S)-4-(3-((5-(2-(2,6-dioxopiperidin-3-yl)-1,3-dioxoisoindolin-4-yl)pent-4-yn-1-yl)amino)-3-oxopropanoyl)-2-((R)-2-phenylmorpholine-4-carbonyl)piperazin-1-yl)-3,3-dimethyl-1-oxobutan-2-yl)carbamoyl)benzo[b]thiophen-5-yl)difluoromethyl)phosphonic acid] | 1 to 10 µM | – | – |
| Cc1ncsc1-c1ccc([C@H](CC(=O)NCCCCCCCCC(=O)N[C@H]2C[C@@H](C(=O)N3CCO[C@H](c4ccccc4)C3)N(C(=O)[C@@H](NC(=O)c3cc4cc(C(F)(F)P(=O)(O)O)ccc4s3)C(C)(C)C)C2)NC(=O)[C@@H]2C[C@@H](O)CN2C(=O)[C@@H](NC(=O)C2(F)CC2)C(C)(C)C)cc1 [Compound 571, (difluoro(2-(((S)-1-((2S,4S)-4-(9-((S)-3-((2S,4R)-1-((S)-2-(1-fluorocyclopropane-1-carboxamido)-3,3-dimethylbutanoyl)-4-hydroxypyrrolidine-2-carboxamido)-3-(4-(4-methylthiazol-5-yl)phenyl)propanamido)nonanamido)-2-((R)-2-phenylmorpholine-4-carbonyl)pyrrolidin-1-yl)-3,3-dimethyl-1-oxobutan-2-yl)carbamoyl)benzo[b]thiophen-5-yl)methyl)phosphonic acid] | > 10 µM | – | – |
| CC(C)(C)[C@H](NC(=O)c1cc2cc(C(F)(F)P(=O)(O)O)ccc2s1)C(=O)N1CCN(C(=O)CC(=O)NCCCCC#Cc2cccc3c2C(=O)N(C2CCC(=O)NC2=O)C3=O)C[C@H]1C(=O)N1CCO[C@H](c2ccccc2)C1 (stereo partly drawn) [Compound 513, ((2-(((2S)-1-((2S)-4-(3-((6-(2-(2,6-dioxopiperidin-3-yl)-1,3-dioxoisoindolin-4-yl)hex-5-yn-1-yl)amino)-3-oxopropanoyl)-2-((R)-2-phenylmorpholine-4-carbonyl)piperazin-1-yl)-3,3-dimethyl-1-oxobutan-2-yl)carbamoyl)benzo[b]thiophen-5-yl)difluoromethyl)phosphonic acid] | > 10 µM | – | – |
| CC(C)(C)[C@H](NC(=O)c1cc2cc(C(F)(F)P(=O)(O)O)ccc2s1)C(=O)N1C[C@@H](OCCCCCCNc2cccc3c2CN(C2CCC(=O)NC2=O)C3=O)C[C@H]1C(=O)N1CCO[C@H](c2ccccc2)C1 (stereo partly drawn) [Compound 599, ((2-(((2S)-1-((2S,4S)-4-((6-((2-(2,6-dioxopiperidin-3-yl)-1-oxoisoindolin-4-yl)amino)hexyl)oxy)-2-((R)-2-phenylmorpholine-4-carbonyl)pyrrolidin-1-yl)-3,3-dimethyl-1-oxobutan-2-yl)carbamoyl)benzo[b]thiophen-5-yl)difluoromethyl)phosphonic acid] | – | > 0.3 µM | – |
| Cc1ncsc1-c1ccc([C@H](C)NC(=O)[C@@H]2C[C@@H](O)CN2C(=O)[C@@H](NC(=O)CCCCCCCCCNC(=O)CC(=O)N2CCN(C(=O)[C@@H](NC(=O)c3cc4cc(C(F)(F)P(=O)(O)O)ccc4s3)C(C)(C)C)[C@H](C(=O)N3CCC[C@H](c4ccccc4)C3)C2)C(C)(C)C)cc1 [Compound 460, (difluoro(2-(((S)-1-((S)-4-(3-((10-(((S)-1-((2S,4R)-4-hydroxy-2-(((S)-1-(4-(4-methylthiazol-5-yl)phenyl)ethyl)carbamoyl)pyrrolidin-1-yl)-3,3-dimethyl-1-oxobutan-2-yl)amino)-10-oxodecyl)amino)-3-oxopropanoyl)-2-((R)-3-phenylpiperidine-1-carbonyl)piperazin-1-yl)-3,3-dimethyl-1-oxobutan-2-yl)carbamoyl)benzo[b]thiophen-5-yl)methyl)phosphonic acid] | > 10 µM | – | > 10 µM |
| CC(C)(C)[C@H](NC(=O)c1cc2cc(C(F)(F)P(=O)(O)O)ccc2s1)C(=O)N1C[C@@H](OCCCCCCC#Cc2cccc3c2CN(C2CCC(=O)NC2=O)C3=O)C[C@H]1C(=O)N1CCOC(c2cccs2)C1 (stereo partly shown) [Compound 611] | – | > 0.3 µM | – |
| CC(C)(C)[C@H](NC(=O)c1cc2cc(C(F)(F)P(=O)(O)O)ccc2s1)C(=O)N1Cc2cc(OCC(=O)NCC#Cc3cccc4c3C(=O)N(C3CCC(=O)NC3=O)C4=O)ccc2C[C@H]1C(=O)N1CCC[C@H](c2ccccc2)C1 (stereo partly drawn) [Compound 549, ((2-(((2S)-1-((3S)-7-(2-((3-(2-(2,6-dioxopiperidin-3-yl)-1,3-dioxoisoindolin-4-yl)prop-2-yn-1-yl)amino)-2-oxoethoxy)-3-((R)-3-phenylpiperidine-1-carbonyl)-3,4-dihydroisoquinolin-2(1H)-yl)-3,3-dimethyl-1-oxobutan-2-yl)carbamoyl)benzo[b]thiophen-5-yl)difluoromethyl)phosphonic acid] | > 10 µM | – | – |
| Cc1ncsc1-c1ccc([C@H](C)NC(=O)[C@@H]2C[C@@H](O)CN2C(=O)[C@@H](NC(=O)CCCNC(=O)CO[C@H]2C[C@@H](C(=O)N3CCC[C@H](c4ccccc4)C3)N(C(=O)[C@@H](NC(=O)c3cc4cc(C(F)(F)P(=O)(O)O)ccc4s3)C(C)(C)C)C2)C(C)(C)C)cc1 [Compound 436, (difluoro(2-(((S)-1-((2S,4S)-4-(2-((4-(((S)-1-((2S,4R)-4-hydroxy-2-(((S)-1-(4-(4-methylthiazol-5-yl)phenyl)ethyl)carbamoyl)pyrrolidin-1-yl)-3,3-dimethyl-1-oxobutan-2-yl)amino)-4-oxobutyl)amino)-2-oxoethoxy)-2-((R)-3-phenylpiperidine-1-carbonyl)pyrrolidin-1-yl)-3,3-dimethyl-1-oxobutan-2-yl)carbamoyl)benzo[b]thiophen-5-yl)methyl)phosphonic acid] | > 10 µM | – | > 10 µM |
